Test results as given in patent publication US4604239A, “Antibiotics” (Eli Lilly and Company, priority 1985, dated 1986).
Converted amounts (≈) assume the structure as drawn. Read-outs that look alike come from different tables or passages of the source.

Legend:
Streptococcus pyogenes = experiment: agar-dilution MIC; format: cell-based
Source text: (§1) The agar-dilution procedure described by the International Collaborative study (ICS) group was used to determine the minimum inhibitory concentrations (MIC's).

[1] = system: Streptococcus sp. (Group D); experiment: agar-dilution MIC; format: cell-based
Source text: as §1

[2] = system: Bacteroides thetaiotaomicron; format: cell-based
Source text: as §1

Propionibacterium acnes = experiment: agar-dilution MIC; format: cell-based
Source text: Antibiotic A41030 factors A, B and C have also been tested and found to be active against a genus of anaerobic bacteria identified as Propionibacterium acnes.

Clostridium difficile = format: cell-based
Clostridium septicum = experiment: agar-dilution MIC; format: cell-based; conditions: Clostridium septicum 1128; Table 14
[3] = system: Peptococcus asaccharolyticus; experiment: agar-dilution MIC; format: cell-based; conditions: Table 15
Protocol: (§2) The MIC values were determined by the agar-dilution method, and are recorded in Table 15, which follows.

Peptococcus constellatus = experiment: agar-dilution MIC; format: cell-based; conditions: Pc. constellatus 1468; Table 15
Protocol: as §2

Peptococcus magnus = experiment: agar-dilution MIC; format: cell-based; conditions: Pc. magnus 1477; Table 15
Protocol: as §2

Peptococcus prevoti = experiment: agar-dilution MIC; format: cell-based; conditions: Table 15
Protocol: as §2

[4] = system: Peptostreptococcus anaerobius; experiment: agar-dilution MIC; format: cell-based
[5] = system: Bacteroides melaninogenicus; experiment: agar-dilution MIC; format: cell-based; conditions: Bacteroides melaninogenicus 2736; Table 14
[6] = system: Fusobacterium necrophorum; experiment: agar-dilution MIC; format: cell-based; conditions: Fusobacterium necrophorum 6054A; Table 14
S. pyogenes = experiment: experimental bacterial infection in mice; format: in vivo
solubility = format: physicochemical
Bacteroides corrodens = experiment: agar-dilution MIC; format: cell-based; conditions: Bacteroides corrodens 1874; Table 14

NC1C(=O)NC2Cc3ccc(c(Cl)c3)Oc3cc4cc(c3O)Oc3ccc(cc3Cl)C(O)C3NC(=O)C(NC(=O)C4NC(=O)C(NC2=O)c2cc(O)cc(c2)Oc2cc1ccc2O)c1cc(Cl)c(O)c(c1)-c1c(O)cc(O)cc1C(C(=O)O)NC3=O (stereo not drawn) [A41030 factor A]
MIC (Streptococcus pyogenes; Streptococcus pyogenes C203, Table 11): 0.25 µg/mL (≈ 0.203 µM) | MIC (Streptococcus pyogenes; Streptococcus pyogenes C203, Table 17): 0.5 µg/mL (≈ 0.405 µM) | MIC (Streptococcus pyogenes; Streptococcus pyogenes C203, end point after 24 hours, Table 18): 0.25 µg/mL (≈ 0.203 µM) | MIC (Streptococcus pyogenes; Streptococcus pyogenes M-6517, Table 11): 0.25 µg/mL (≈ 0.203 µM) | MIC ([1]; Streptococcus sp. (Group D) 238, Table 11): 0.25 µg/mL (≈ 0.203 µM) | MIC ([1]; Streptococcus sp. (Group D) 282, Table 11): 0.25 µg/mL (≈ 0.203 µM) | MIC ([1]; Streptococcus sp. (Group D) 9901, Table 11): 0.25 µg/mL (≈ 0.203 µM) | MIC ([1]; Streptococcus sp. (Group D) 12253F, Table 11): 0.25 µg/mL (≈ 0.203 µM) | MIC ([1]; Streptococcus sp. (Group D) Guze, Table 11): 0.25 µg/mL (≈ 0.203 µM) | MIC ([1]; Streptococcus sp. Group D 2041, end point after 24 hours, Table 18): 0.5 µg/mL (≈ 0.405 µM) | MIC ([1]; Streptococcus sp. Group D 2058, end point after 24 hours, Table 18): 0.5 µg/mL (≈ 0.405 µM) | MIC ([1]; Streptococcus sp. Group D 8043, end point after 24 hours, Table 18): 0.25 µg/mL (≈ 0.203 µM) | MIC ([1]; Streptococcus sp. Group D 9901, end point after 24 hours, Table 18): 1 µg/mL (≈ 0.811 µM) | MIC ([1]; Streptococcus sp. Group D 9960, Table 17): 2 µg/mL (≈ 1.62 µM) | MIC ([1]; Streptococcus sp. Group D 9960, end point after 24 hours, Table 18): 0.5 µg/mL (≈ 0.405 µM) | MIC ([1]; Streptococcus sp. Group D 12253F, end point after 24 hours, Table 18): 0.25 µg/mL (≈ 0.203 µM) | MIC ([1]; Streptococcus sp. Group D Mx161, end point after 24 hours, Table 18): 0.25 µg/mL (≈ 0.203 µM) | MIC ([1]; Streptococcus sp. Group D X66, Table 17): 1 µg/mL (≈ 0.811 µM) | MIC ([1]; Streptococcus sp. Group D X66, end point after 24 hours, Table 18): 0.25 µg/mL (≈ 0.203 µM) | MIC ([2]; B. thetaiotaomicron 1438, 24-hour, Table 12): 64 µg/mL (≈ 51.9 µM) | MIC ([2]; Bacteroides thetaiotaomicron 1438, Table 14): 64 µg/mL (≈ 51.9 µM) | MIC (Propionibacterium acnes; P. acnes 104, 24-hour, Table 13): 0.25 µg/mL (≈ 0.203 µM) | MIC (Propionibacterium acnes; P. acnes 107, 24-hour, Table 13): 0.06 µg/mL (≈ 0.0486 µM) | MIC (Propionibacterium acnes; P. acnes 5170, 24-hour, Table 13): ≤ 0.03 µg/mL | MIC (Propionibacterium acnes; P. acnes 5176, 24-hour, Table 13): ≤ 0.03 µg/mL | MIC (Propionibacterium acnes; P. acnes 5187, 24-hour, Table 13): ≤ 0.03 µg/mL | MIC (Propionibacterium acnes; P. acnes 5197, 24-hour, Table 13): ≤ 0.03 µg/mL | MIC (Propionibacterium acnes; P. acnes 5226, 24-hour, Table 13): 0.5 µg/mL (≈ 0.405 µM) | MIC (Propionibacterium acnes; P. acnes 5227, 24-hour, Table 13): ≤ 0.03 µg/mL | MIC (Propionibacterium acnes; P. acnes 5228, 24-hour, Table 13): 1.0 µg/mL (≈ 0.811 µM) | MIC (Propionibacterium acnes; P. acnes 5229, 24-hour, Table 13): 0.5 µg/mL (≈ 0.405 µM) | MIC (Propionibacterium acnes; P. acnes 5246, 24-hour, Table 13): 0.06 µg/mL (≈ 0.0486 µM) | MIC (Propionibacterium acnes; P. acnes 5292, 24-hour, Table 13): 0.06 µg/mL (≈ 0.0486 µM) | MIC (Propionibacterium acnes; Propionibacterium acnes 79, Table 14): ≤ 0.25 µg/mL | MIC (Clostridium difficile; Clostridium difficile 78, Table 16): 1.0 µg/mL (≈ 0.811 µM) | MIC (Clostridium difficile; Clostridium difficile 107B, Table 16): 1.0 µg/mL (≈ 0.811 µM) | MIC (Clostridium difficile; Clostridium difficile 111F, Table 16): 1.0 µg/mL (≈ 0.811 µM) | MIC (Clostridium difficile; Clostridium difficile 1153, Table 16): 1.0 µg/mL (≈ 0.811 µM) | MIC (Clostridium difficile; Clostridium difficile 2634, Table 16): 1.0 µg/mL (≈ 0.811 µM) | MIC (Clostridium difficile; Clostridium difficile 2994, Table 14): 32 µg/mL (≈ 25.9 µM) | MIC (Clostridium difficile; Clostridium difficile 3424-5B, Table 16): 1.0 µg/mL (≈ 0.811 µM) | MIC (Clostridium difficile; Clostridium difficile 3816, Table 16): 1.0 µg/mL (≈ 0.811 µM) | MIC (Clostridium difficile; Clostridium difficile 3950D, Table 16): 1.0 µg/mL (≈ 0.811 µM) | MIC (Clostridium difficile; Clostridium difficile 6890, Table 16): 1.0 µg/mL (≈ 0.811 µM) | MIC (Clostridium difficile; Clostridium difficile 8484, Table 16): 1.0 µg/mL (≈ 0.811 µM) | MIC (Clostridium difficile; Clostridium difficile A-194, Table 16): 1.0 µg/mL (≈ 0.811 µM) | MIC (Clostridium difficile; Clostridium difficile A-195, Table 16): 1.0 µg/mL (≈ 0.811 µM) | MIC (Clostridium difficile; Clostridium difficile A-196, Table 16): 1.0 µg/mL (≈ 0.811 µM) | MIC (Clostridium difficile; Clostridium difficile A-279, Table 16): 1.0 µg/mL (≈ 0.811 µM) | MIC (Clostridium difficile; Clostridium difficile A-280, Table 16): 1.0 µg/mL (≈ 0.811 µM) | MIC (Clostridium difficile; Clostridium difficile A-281, Table 16): 1.0 µg/mL (≈ 0.811 µM) | MIC (Clostridium difficile; Clostridium difficile WAL-2112, Table 16): 1.0 µg/mL (≈ 0.811 µM) | MIC (Clostridium difficile; Clostridium difficile WAL-3657, Table 16): 1.0 µg/mL (≈ 0.811 µM) | MIC (Clostridium difficile; Clostridium difficile WAL-4268, Table 16): 1.0 µg/mL (≈ 0.811 µM) | MIC (Clostridium septicum): 2 µg/mL (≈ 1.62 µM) | MIC ([3]; Pc. asaccharolyticus 1302): ≤ 0.03 µg/mL | MIC ([3]; Pc. asaccharolyticus 1344): 0.5 µg/mL (≈ 0.405 µM) | MIC (Peptococcus constellatus): 0.5 µg/mL (≈ 0.405 µM) | MIC (Peptococcus magnus): 0.5 µg/mL (≈ 0.405 µM) | MIC (Peptococcus prevoti; Pc. prevoti 1293): 1.0 µg/mL (≈ 0.811 µM) | MIC (Peptococcus prevoti; Pc. prevoti 1407): 1.0 µg/mL (≈ 0.811 µM) | MIC ([4]; Peptostreptococcus anaerobius 1428, Table 14): ≤ 0.25 µg/mL | MIC ([4]; Ps. anaerobius 8, Table 15): 0.5 µg/mL (≈ 0.405 µM) | MIC ([4]; Ps. anaerobius 52, Table 15): 0.5 µg/mL (≈ 0.405 µM) | MIC ([4]; Ps. anaerobius 59, Table 15): 0.5 µg/mL (≈ 0.405 µM) | MIC ([4]; Ps. anaerobius 1418, Table 15): ≤ 0.03 µg/mL | MIC ([4]; Ps. anaerobius 1428, Table 15): 0.5 µg/mL (≈ 0.405 µM) | MIC ([4]; Ps. anaerobius 1451, Table 15): 0.5 µg/mL (≈ 0.405 µM) | MIC ([4]; Ps. anaerobius 1477, Table 15): 0.5 µg/mL (≈ 0.405 µM) | MIC [5]: 4 µg/mL (≈ 3.24 µM) | MIC [6]: 8 µg/mL (≈ 6.49 µM) | ED50 (S. pyogenes; S. pyogenes infection in mice, two doses subcutaneously): 2.8 mg/kg | in vivo oral activity (S. pyogenes; against S. pyogenes in mice, oral): > 300 mg./kg. X 2 | solubility (solvents) (solubility): soluble in alcohol-water mixtures, in dimethylsulfoxide, in dimethylformamide, in dimethylsulfoxide-water mixtures, in dimethylformamide-water mixtures, in dilute aqueous acid, and in dilute aqueous base | MIC (Bacteroides corrodens): 64 µg/mL (≈ 51.9 µM)
